Data published in patent publication US20110039873A1, “SUBSTITUTED PYRAZOLO[1,5-a] PYRIDINE COMPOUNDS HAVING MULTI-TARGET ACTIVITY” (priority 2009, published 2011).
Read-outs that look alike come from different tables or passages of the source.

Columns and labels:
[1] = molecular target: T1, recombinant full length human JNK3 enzyme (Homo sapiens, UniProt P53779); test: JNK 3 inhibition assay (ATP depletion, luciferase); type: biochemical; settings: for IC50: 10 uM ATP, ATF2 substrate; for JNK-3 inhibition (in words): see Table 2
T1 construct: recombinant full length human JNK2 or JNK3 enzyme; purchased Upstate; host or cells: Sf21 cells
Procedure: In a 96-well plate, recombinant full length human JNK2 or JNK3 enzyme (40 ng) expressed in Sf21 cells (Upstate) was incubated with the substrate ATF2 (3 uM) for 1 hour in the presence of 10 uM ATP. […] The ATP levels were quantified using luciferase with luminescence read on a Victor Light 1420 luminometer. IC50 calculations were plotted using a nonlinear regression curve fit.

[2] = molecular target: T2, recombinant human phosphodiesterase 10A1 enzyme (Homo sapiens, UniProt Q9Y233); test: PDE10 inhibition assay (PDELight); type: biochemical; settings: for IC50: 1 uM cAMP, read-out: PDE 10 Inhibition (IC50 in μM); for PDE-10 inhibition (in words): Table 2
T2 construct: purchased BPS Biosciences; host or cells: Baculovirus infected Sf9 cells
Procedure: In a 96-well plate, recombinant human phosphodiesterase 10A1 enzyme (10 U/well) expressed in Baculovirus infected Sf9 cells (BPS Biosciences) was combined with 1 uM cAMP substrate (Sigma). […] Using a PDELight® kit (Cambrex), the amount of AMP produced in the reaction from the hydrolysis of cAMP was quantified using PDELight AMP Detection Reagent which converts the AMP directly to ATP. The assay uses luciferase, which catalyses the formation of light from the newly formed ATP and luciferin. The luminescence was read on a Victor Light 1420 luminometer. IC50 calculations were plotted using a nonlinear regression curve fit.

[3] = tested on: rat chronic constriction injury (CCI) model of neuropathic pain; test: Rat chronic constriction injury (CCI) model of neuropathic pain; type: in vivo; settings: IP, dose not given; 50% paw withdrawal threshold, von Frey
Procedure: To induce allodynia, male Sprague-Dawley rats underwent chronic constriction injury (CCI) to the sciatic nerve as described by Bennett and Xie, Pain 1988; 33(1):87-107. The plantar surface of the hind paws was stimulated with von Frey filaments (Stoelting) to induce a withdrawal response by blinded personnel. The bending force of fiber required to induce a 50% withdrawal response was calculated following CCI surgery (pre-dosing baseline). N=5-6 allodynic rats received a single IP or oral administration of test compounds or vehicle. Two hours post-dosing, 50% paw withdrawal threshold was determined again by blinded testers using von Frey filaments. The 50% withdrawal threshold prior to CCI surgery, pre-dosing (10 days post-surgery), and 2 hours post-dosing are plotted.
For selected compounds multi-day studies were perfumed with pre-determined schedules for dosing and withdrawal threshold assessments.

[4] = molecular target: T3, catalytic domain of phosphodiesterase 4B enzyme cloned from human brain (Homo sapiens, UniProt Q07343); test: PDE4 inhibition assay (PDELight); type: biochemical; settings: for IC50: 5 uM cAMP, read-out: PDE 4 Inhibition (IC50 in μM)
T3 construct: the catalytic domain of phosphodiesterase 4B enzyme; purchased Scottish Biomedical
Procedure: In a 96-well plate, the catalytic domain of phosphodiesterase 4B enzyme (40 mU/well) cloned from human brain (Scottish Biomedical) was combined with 5 uM cAMP substrate (Sigma). […] Using a PDELight® kit (Cambrex), the amount of AMP produced in the reaction from the hydrolysis of cAMP was quantified using PDELight AMP Detection Reagent which converts the AMP directly to ATP. The assay uses luciferase, which catalyses the formation of light from the newly formed ATP and luciferin. […] IC50 calculations were plotted using a nonlinear regression curve fit.

[5] = tested on: at least one of JNK 3 or JNK 2 and at least one of PDE 10 or PDE 4; test: Dual inhibition (phosphodiesterase and JNK); type: biochemical, human; settings: IC50 JNK 3 or JNK 2 less than about 5.00 μM and PDE 10 or PDE 4 less than about 20.0 or 30.0 μM
Procedure: In a 96-well plate, recombinant full length human JNK2 or JNK3 enzyme (40 ng) expressed in Sf21 cells (Upstate) was incubated with the substrate ATF2 (3 uM) for 1 hour in the presence of 10 uM ATP. The amount of ATP depletion by the JNK enzyme is measured in the presence or absence of test compounds (0-30 uM). The ATP levels were quantified using luciferase with luminescence read on a Victor Light 1420 luminometer. IC50 calculations were plotted using a nonlinear regression curve fit.
In a 96-well plate, the catalytic domain of phosphodiesterase 4B enzyme (40 mU/well) cloned from human brain (Scottish Biomedical) was combined with 5 uM cAMP substrate (Sigma). Test compounds (0-30 uM) or vehicle (0.5% DMSO) were added to the enzyme/substrate and incubated 1 hour. Using a PDELight® kit (Cambrex), the amount of AMP produced in the reaction from the hydrolysis of cAMP was quantified using PDELight AMP Detection Reagent which converts the AMP directly to ATP. The assay uses luciferase, which catalyses the formation of light from the newly formed ATP and luciferin. The luminescence was read on a Victor Light 1420 luminometer. IC50 calculations were plotted using a nonlinear regression curve fit.
In a 96-well plate, recombinant human phosphodiesterase 10A1 enzyme (10 U/well) expressed in Baculovirus infected Sf9 cells (BPS Biosciences) was combined with 1 uM cAMP substrate (Sigma). Test compounds (0-30 uM) or vehicle (0.5% DMSO) were added to the enzyme/substrate and incubated 1 hour. Using a PDELight® kit (Cambrex), the amount of AMP produced in the reaction from the hydrolysis of cAMP was quantified using PDELight AMP Detection Reagent which converts the AMP directly to ATP. The assay uses luciferase, which catalyses the formation of light from the newly formed ATP and luciferin. The luminescence was read on a Victor Light 1420 luminometer. IC50 calculations were plotted using a nonlinear regression curve fit.

[6] = molecular target: T4, recombinant full length human JNK2 enzyme (Homo sapiens, UniProt P45984); test: JNK 2 inhibition assay (ATP depletion, luciferase); type: biochemical
T4 construct: recombinant full length human JNK2 or JNK3 enzyme; purchased Upstate; host or cells: Sf21 cells
Procedure: In a 96-well plate, recombinant full length human JNK2 or JNK3 enzyme (40 ng) expressed in Sf21 cells (Upstate) was incubated with the substrate ATF2 (3 uM) for 1 hour in the presence of 10 uM ATP. […] IC50 calculations were plotted using a nonlinear regression curve fit.

[7] = tested on: Mouse BV-2 microglial cells; test: BV-2 glial cell assay (TNF-α and MCP-1 by Luminex); type: cell-based; settings: for EC50: Mus musculus, BV-2, LPS and IFN-γ activated, 20 hours
Procedure: Mouse BV-2 microglial cells were seeded on 96-well plates at a concentration of 3×10^4 cells/well. Cells were activated with 100 ng/mL LPS and IFN-γ (100 ng/mL) in the presence or absence of test compounds (0-30 uM). Following incubation for 20 hours, cells were spun down and supernatant collected. The supernatant was analyzed via Luminex for the presence of TNF-α and MCP-1.

[8] = read-out: IC50 value based upon a JNK 2 inhibition assay (range given)
[9] = 10 uM ATP, ATF2 substrate, read-out: JNK 2 Inhibition (IC50 in μM)

T3 sequence (Q07343 330-659 limits assumed): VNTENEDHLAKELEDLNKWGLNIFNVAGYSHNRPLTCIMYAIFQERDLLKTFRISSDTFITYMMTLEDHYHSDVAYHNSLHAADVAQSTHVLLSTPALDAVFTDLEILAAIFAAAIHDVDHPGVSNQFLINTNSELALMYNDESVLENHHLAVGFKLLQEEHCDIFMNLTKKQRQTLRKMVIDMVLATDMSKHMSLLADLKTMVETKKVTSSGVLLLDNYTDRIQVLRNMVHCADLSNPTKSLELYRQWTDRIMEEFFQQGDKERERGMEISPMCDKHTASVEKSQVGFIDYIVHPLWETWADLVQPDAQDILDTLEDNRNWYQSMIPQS
T1 sequence (P53779 whole entry): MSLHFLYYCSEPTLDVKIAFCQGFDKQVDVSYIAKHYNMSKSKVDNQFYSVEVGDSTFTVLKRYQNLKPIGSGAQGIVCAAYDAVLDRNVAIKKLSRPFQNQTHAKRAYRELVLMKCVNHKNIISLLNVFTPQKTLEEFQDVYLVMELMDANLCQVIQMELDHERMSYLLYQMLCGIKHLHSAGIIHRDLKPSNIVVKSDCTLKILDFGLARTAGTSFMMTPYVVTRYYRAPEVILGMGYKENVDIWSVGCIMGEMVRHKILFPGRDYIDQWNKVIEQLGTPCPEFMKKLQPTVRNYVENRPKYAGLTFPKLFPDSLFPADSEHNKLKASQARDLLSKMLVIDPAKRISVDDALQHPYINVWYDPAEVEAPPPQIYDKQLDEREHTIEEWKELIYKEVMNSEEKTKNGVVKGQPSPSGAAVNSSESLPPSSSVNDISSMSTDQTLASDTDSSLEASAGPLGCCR
T2 sequence (Q9Y233 1-779 isoform Q9Y233-1): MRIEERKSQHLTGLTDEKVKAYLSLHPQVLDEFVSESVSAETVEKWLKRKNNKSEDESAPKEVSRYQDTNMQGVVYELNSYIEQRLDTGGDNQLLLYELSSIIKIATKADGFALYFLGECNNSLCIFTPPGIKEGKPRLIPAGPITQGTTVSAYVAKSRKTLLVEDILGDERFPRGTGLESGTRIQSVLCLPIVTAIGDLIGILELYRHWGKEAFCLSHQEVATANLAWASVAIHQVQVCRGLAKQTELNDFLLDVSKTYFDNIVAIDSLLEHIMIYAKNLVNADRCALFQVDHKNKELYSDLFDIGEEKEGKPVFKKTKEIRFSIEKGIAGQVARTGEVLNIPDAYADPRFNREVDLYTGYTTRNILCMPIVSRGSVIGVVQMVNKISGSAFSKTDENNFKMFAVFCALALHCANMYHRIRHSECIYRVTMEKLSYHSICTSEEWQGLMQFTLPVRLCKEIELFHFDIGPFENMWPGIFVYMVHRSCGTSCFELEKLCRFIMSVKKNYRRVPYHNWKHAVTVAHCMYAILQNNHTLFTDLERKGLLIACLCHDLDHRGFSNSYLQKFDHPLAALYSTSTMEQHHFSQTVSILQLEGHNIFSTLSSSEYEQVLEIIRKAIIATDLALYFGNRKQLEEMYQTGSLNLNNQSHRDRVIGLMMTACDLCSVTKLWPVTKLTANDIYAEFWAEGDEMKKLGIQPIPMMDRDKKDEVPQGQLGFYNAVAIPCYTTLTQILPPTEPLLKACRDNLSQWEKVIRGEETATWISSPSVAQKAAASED
T4 sequence (P45984 whole entry): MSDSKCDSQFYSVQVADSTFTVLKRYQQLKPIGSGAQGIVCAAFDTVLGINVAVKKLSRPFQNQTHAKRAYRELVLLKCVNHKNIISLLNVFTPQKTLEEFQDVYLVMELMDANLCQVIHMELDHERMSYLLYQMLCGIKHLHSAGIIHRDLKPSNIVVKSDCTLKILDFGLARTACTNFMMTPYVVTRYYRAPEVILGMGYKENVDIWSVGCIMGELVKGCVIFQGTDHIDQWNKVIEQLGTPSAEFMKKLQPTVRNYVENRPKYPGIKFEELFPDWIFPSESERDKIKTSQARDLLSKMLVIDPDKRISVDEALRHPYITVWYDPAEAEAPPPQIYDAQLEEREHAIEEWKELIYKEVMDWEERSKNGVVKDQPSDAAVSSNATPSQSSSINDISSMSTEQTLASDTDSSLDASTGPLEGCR

| SMILES | IC50 [1] | IC50 [2] | PDE-10 inhibition (in words) [2] | PDE-4 inhibition (in words) [4] | IC50 [4] | dual inhibition (phosphodiesterase and JNK) [5] | JNK-3 inhibition (in words) [1] | IC50 [6, 8] | IC50 [6, 9] | EC50 ([7]; read-out: MCP-1 BV-2 (EC50 in μM)) | EC50 ([7]; read-out: TNF-a BV-2 (EC50 in μM)) | IP CCI efficacy (Change in grams) [3] | inhibiting glial cell activation (TNF-α and/or MCP-1) ([7]; Table 3) |
| --- | --- | --- | --- | --- | --- | --- | --- | --- | --- | --- | --- | --- | --- |
| CC(C)c1nn2ccccc2c1-c1ccnc(NCCCO)n1 [AV1134, 3-(4-(2-isopropylpyrazolo[1,5-a]pyridin-3-yl)pyrimidin-2-ylamino)propan-1-ol] | 8.2 µM | 9.3 µM | particularly effective | particularly effective | 6.2 µM | effective dual inhibitors |  |  |  |  |  | 0 grams |  |
| CC(C)CNc1nccc(-c2cnn3ccccc23)n1 [AV1167, N-isobutyl-4-(pyrazolo[1,5-a]pyridin-3-yl)pyrimidin-2-amine] | 0.7 µM | 37 µM |  |  | 13 µM | effective dual inhibitors | particularly effective | 0.01 to 2 µM | 1.5 µM |  |  |  |  |
| Cc1cccc2c(-c3ccnc(NC(C)C)n3)c(C(C)C)nn12 [AV1168, N-isopropyl-4-(2-isopropyl-7-methylpyrazolo[1,5-a]pyridin-3-yl)pyrimidin-2-amine] | 2.2 µM | 59 µM |  | particularly effective | 2.9 µM | effective dual inhibitors |  |  | 8.1 µM |  |  | 0 grams |  |
| CCCCc1nn2ccccc2c1-c1ccnc(NC(C)C)n1 [AV1174, 4-(2-butylpyrazolo[1,5-a]pyridin-3-yl)-N-isopropylpyrimidin-2-amine] | 1.1 µM | 31 µM |  | particularly effective | 7.9 µM | effective dual inhibitors | particularly effective | 0.01 to 2 µM | 1.2 µM |  |  |  |  |
| CC(C)Nc1nccc(-c2c(-c3ccccc3)nn3ccccc23)n1 [AV1176, N-isopropyl-4-(2-phenylpyrazolo[1,5-a]pyridin-3-yl)pyrimidin-2-amine] | 0.1 µM | > 100 µM |  | particularly effective | 3.8 µM | effective dual inhibitors | particularly effective | 0.01 to 2 µM | 0.1 µM |  |  |  |  |
| CC(C)Cc1nn2ccccc2c1-c1ccnc(NC(C)C)n1 [AV1177, 4-(2-isobutylpyrazolo[1,5-a]pyridin-3-yl)-N-isopropylpyrimidin-2-amine] | 1.8 µM | > 100 µM |  | particularly effective | 6.4 µM | effective dual inhibitors | particularly effective |  | 3 µM |  |  |  |  |

Continued, in another order:

| IC50 [1] | IC50 [2] | PDE-10 inhibition (in words) [2] | PDE-4 inhibition (in words) [4] | IC50 [4] | dual inhibition (phosphodiesterase and JNK) [5] | JNK-3 inhibition (in words) [1] | IC50 [6, 8] | IC50 [6, 9] | EC50 ([7]; read-out: MCP-1 BV-2 (EC50 in μM)) | EC50 ([7]; read-out: TNF-a BV-2 (EC50 in μM)) | SMILES | IP CCI efficacy (Change in grams) [3] | inhibiting glial cell activation (TNF-α and/or MCP-1) ([7]; Table 3) |
| --- | --- | --- | --- | --- | --- | --- | --- | --- | --- | --- | --- | --- | --- |
| 1.5 µM | 16.8 µM | particularly effective | particularly effective | 4.5 µM | effective dual inhibitors | particularly effective |  |  |  |  | CC(C)c1nn2ccccc2c1-c1ccnc(NC2CC2)n1 [AV1136, N-cyclopropyl-4-(2-isopropylpyrazolo[1,5-a]pyridin-3-yl)pyrimidin-2-amine] | 0 grams |  |
| 3 µM | 20 µM |  | particularly effective | 8.6 µM | effective dual inhibitors |  | 0.01 to 2 µM |  |  |  | CC(C)c1nn2ccccc2c1-c1ccnc(NC2CCC2)n1 [AV1156, N-cyclobutyl-4-(2-isopropylpyrazolo[1,5-a]pyridin-3-yl)pyrimidin-2-amine] | 0.33 grams |  |
| 1.2 µM | > 100 µM |  | particularly effective | 8.6 µM | effective dual inhibitors | particularly effective |  | 4.5 µM |  |  | COCc1nn2ccccc2c1-c1ccnc(NC(C)C)n1 [AV1175, N-isopropyl-4-(2-(methoxymethyl)pyrazolo[1,5-a]pyridin-3-yl)pyrimidin-2-amine] |  |  |
| 0.9 µM | > 100 µM |  | particularly effective | 5.7 µM | effective dual inhibitors | particularly effective |  |  |  |  | Cc1nn2ccccc2c1-c1ccnc(NC2CCCC2)n1 [AV1182, N-cyclopentyl-4-(2-methylpyrazolo[1,5-a]pyridin-3-yl)pyrimidin-2-amine] |  |  |
| 0.08 µM | > 100 µM |  | particularly effective | 5.2 µM | effective dual inhibitors | particularly effective | 0.01 to 2 µM | 0.1 µM | 1.2 µM | 0.03 µM | Clc1cccc(-c2nn3ccccc3c2-c2ccnc(NC3CCCC3)n2)c1 [AV1194, 4-(2-(3-chlorophenyl)pyrazolo[1,5-a]pyridin-3-yl)-N-cyclopentylpyrimidin-2-amine] |  | Particularly effective |
